From US7973069B2 (PTC Therapeutics, Inc., priority 2004, dated 2011)
Where “and” joins values, the source holds several entries; their conditions need not be identical. Identical values can stand only once.

test system: HCV replicon; type: cell-based

Row | Structure (SMILES) | IC50
1 | CCOc1ccc2c(C#N)c(-c3ccc(NC(=O)NC(C)C)cc3)n(CC3CC3)c2c1 [Compound 1120] | < 0.5 µM
2 | CCOc1ccc2c(C#N)c(-c3ccc(NC(=O)OC4CCCC4)cc3)n(C(C)CC)c2c1 (centres unmarked) [Compound 1222] | 0.5 to 2 µM
3 | CCCCNC(=O)Nc1cccc(-c2c(C#N)c3ccc(OCC)cc3n2CCCC)c1 [Compound 1023] | 0.5 to 2 µM
4 | CCOc1ccc2c(C#N)c(-c3ccc(N)cc3)n(C3CCC3)c2c1 [Compound 939] | 0.5 to 2 µM
5 | CCCCNC(=O)Nc1ccc(-c2c(C#N)c3cc(OC)ccc3n2CC)cc1 [Compound 1012] | 0.5 to 2 µM
6 | CCn1c(-c2ccc(NC(=O)C3CC3)cc2)c(C#N)c2ccc(OCCn3cccn3)cc21 [Compound 1184] | 0.5 to 2 µM
7 | CCCCS(=O)(=O)Nc1ccc(-c2c(C#N)c3ccc(OCCF)cc3n2CC)cc1 [Compound 953] | 0.5 to 2 µM
8 | C=CCNC(=O)Nc1ccc(-c2c(C#N)c3cc4c(cc3n2C2CCC2)OCO4)cc1 [Compound 1304] | 0.5 to 2 µM
9 | CCCOC(=O)Nc1ccc(-c2c(C#N)c3ccc(OCCCN4CCOCC4)cc3n2CC)cc1 [Compound 1122] | < 0.5 µM
10 | CCn1c(-c2ccc(NC(=O)N3CCCCC3)cc2)c(C#N)c2ccc(OC)cc21 [Compound 1088] | 0.5 to 2 µM
11 | N#Cc1c(-c2ccc(NC(=O)NC3CCCC3)cc2)n(C2CCC2)c2cc(OC(F)F)ccc12 [Compound 1190] | 0.5 to 2 µM
12 | CCn1c(-c2ccc(NS(=O)(=O)C3CC3)c(C)c2)c(C#N)c2ccc(OC)cc21 [Compound 962] | 0.5 to 2 µM
13 | C=CCOC(=O)Nc1ccc(-c2c(C#N)c3ccc(OC(F)F)cc3n2CC)cc1 [Compound 1135] | < 0.5 µM
14 | COc1ccc2c(c1)c(C#N)c(-c1ccc(NC(=O)OCC(C)C)cc1)n2C1CCC1 [Compound 1178] | < 0.5 µM
15 | C[C@@H](OC(=O)Nc1ccc(-c2c(C#N)c3ccc(OCCF)cc3n2C2CCC2)cc1)C1CC1 [Compound 2326] | < 0.5 µM
16 | CCN(C)CCOc1ccc2c(C#N)c(-c3ccc(NC(=O)OC(C)C)cc3)n(C3CCC3)c2c1 [Compound 1270] | < 0.5 µM
17 | CCOc1ccc2c(C#N)c(-c3ccc(NC(=O)OCC4(C)CC4)cc3)n(C3CCC3)c2c1 [Compound 1208] | < 0.5 µM
18 | Cn1c(-c2ccc(N3CCCS3(=O)=O)cc2)c(C#N)c2ccc(OC(F)(F)F)cc21 [Compound 902] | 0.5 to 2 µM
19 | CCCn1c(-c2ccc(NS(=O)(=O)C3CC3)cc2)c(C#N)c2ccc(OCc3ccccc3)cc21 [Compound 924] | 0.5 to 2 µM
20 | N#Cc1c(-c2ccc(NC(=O)OCC3CCC3)cc2)n(C2CCC2)c2cc(OCC3CCCO3)ccc12 (centres unmarked) [Compound 1287] | < 0.5 µM
21 | COc1ccc2c(C#N)c(-c3ccc(NC(=O)NC(C)C)cc3)n(CC3CC3)c2c1 [Compound 987] | 0.5 to 2 µM
22 | COc1ccc2c(C#N)c(-c3ccc(NC(=O)NC(C)C)cc3)n(C3CCC3)c2c1 [Compound 1082] | 0.5 to 2 µM
23 | CC(C)NC(=O)Nc1ccc(-c2c(C#N)c3ccc(OCCF)cc3n2C2CCC2)cc1 [Compound 1108] | < 0.5 µM
24 | N#Cc1c(-c2ccc(NC(=O)NC3CCCC3)cc2)n(C2CCC2)c2cc3c(cc12)OCO3 [Compound 1305] | < 0.5 µM
25 | CCn1c(-c2ccc(NC(=O)OC(C)C)c(F)c2)c(C#N)c2ccc(OC)cc21 [Compound 878] | 0.5 to 2 µM
26 | CCCn1c(-c2ccc(NC(=O)OC(C)C)cc2)c(C#N)c2ccc(OCC)cc21 [Compound 1056] | < 0.5 µM
27 | CCOc1ccc2c(C#N)c(-c3ccc(NC(=O)OCCF)cc3)n(CC)c2c1 [Compound 950] | 0.5 to 2 µM

Row | Structure (SMILES) | IC50
28 | CCCCNC(=O)Nc1ccc(-c2c(C#N)c3cc(OCC)ccc3n2C2CCC2)cc1 [Compound 1225] | 0.5 to 2 µM and < 0.5 µM
29 | CCNC(=O)Nc1ccc(-c2c(C#N)c3ccc(OCC)cc3n2C(C)C)cc1 [Compound 1098] | 0.5 to 2 µM
30 | CCCNC(=O)Nc1ccc(-c2c(C#N)c3ccc(OCC)cc3n2CCC)cc1 [Compound 1095] | < 0.5 µM
31 | CCCOc1ccc2c(C#N)c(-c3ccc(NC(=O)OC(C)C4CC4)cc3)n(C(C)C)c2c1 (centres unmarked) [Compound 1242] | < 0.5 µM
32 | CCCOc1ccc2c(C#N)c(-c3ccc(NC(=O)OC4CCCC4)cc3)n(C(C)C)c2c1 [Compound 1205] | < 0.5 µM
33 | CCOc1ccc2c(C#N)c(-c3ccc(NC(=O)NC(C)C)cc3)n(CC3CCC3)c2c1 [Compound 1171] | < 0.5 µM
34 | CCCn1c(-c2ccc(NC(=O)NCC)cc2)c(C#N)c2cc(OC)ccc21 [Compound 999] | 0.5 to 2 µM
35 | CCn1c(-c2ccc(NC(=O)OC)cc2)c(C#N)c2ccc(OC(F)(F)F)cc21 [Compound 886] | 0.5 to 2 µM
36 | CCCOC(=O)Nc1ccc(-c2c(C#N)c3cc(OC)ccc3n2C2CCC2)cc1 [Compound 1177] | < 0.5 µM and 0.5 to 2 µM
37 | CCOc1ccc2c(c1)c(C#N)c(-c1ccc(NC(=O)NC(C)C)cc1)n2C1CCC1 [Compound 1223] | < 0.5 µM
38 | CCCOc1ccc2c(C#N)c(-c3ccc(NC(=O)OC(C)CC)cc3)n(C(C)C)c2c1 (centres unmarked) [Compound 1246] | < 0.5 µM
39 | CCOc1ccc2c(C#N)c(-c3cccc(NC(=O)OCC(C)C)c3)n(C3CCC3)c2c1 [Compound 1037] | 0.5 to 2 µM
40 | CCOc1ccc2c(C#N)c(-c3ccc(NP(=O)(OCC)OCC)cc3)n(C3CCC3)c2c1 [Compound 936] | < 0.5 µM
41 | CCCCOC(=O)Nc1ccc(-c2c(C#N)c3ccc(OC(F)F)cc3n2CC)cc1 [Compound 1133] | 0.5 to 2 µM
42 | CCOc1ccc2c(c1)c(C#N)c(-c1ccc(NC(=O)OCC(C)(C)C)cc1)n2C1CCC1 [Compound 1200] | < 0.5 µM
43 | CCCOc1ccc2c(C#N)c(-c3ccc(NC(=O)OCC4(C)CC4)cc3)n(C(C)C)c2c1 [Compound 1243] | < 0.5 µM
44 | COc1ccc2c(C#N)c(-c3ccc(NC(=O)OCC(C)(C)C)cc3)n(C3CCC3)c2c1 [Compound 1078] | < 0.5 µM and 0.5 to 2 µM
45 | CCOc1ccc2c(C#N)c(-c3ccc(NC(=O)OCC4CCC4)cc3)n(C3CCC3)c2c1 [Compound 1158] | < 0.5 µM
46 | CC(C)NC(=O)Nc1ccc(-c2c(C#N)c3ccc(OCCN(C)C)cc3n2C2CCC2)cc1 [Compound 1319] | < 0.5 µM
47 | C=CCNC(=O)Nc1ccc(-c2c(C#N)c3ccc(OC(F)F)cc3n2CC2CC2)cc1 [Compound 1070] | 0.5 to 2 µM
48 | CCCS(=O)(=O)Nc1ccc(-c2c(C#N)c3ccc(OCCF)cc3n2C2CCC2)cc1 [Compound 1175] | < 0.5 µM
49 | CCOP(=O)(Nc1ccc(-c2c(C#N)c3ccc(OC)cc3n2C2CCC2)cc1)OCC [Compound 1081] | 0.5 to 2 µM
50 | CCOc1ccc2c(c1)c(C#N)c(-c1ccc(NC(=O)OC3CCC3)cc1)n2C1CCC1 [Compound 1292] | < 0.5 µM
51 | CCCn1c(-c2ccc(NS(=O)(=O)C3CC3)cc2)c(C#N)c2cc(OC)ccc21 [Compound 998] | 0.5 to 2 µM
52 | COc1ccc2c(c1)c(C#N)c(-c1ccc(NS(=O)(=O)C3CC3)cc1)n2C1CCC1 [Compound 1182] | < 0.5 µM and > 2 µM
53 | CCOc1ccc2c(C#N)c(-c3ccc(NC(=O)OC)cc3)n(C3CCC3)c2c1 [Compound 970] | < 0.5 µM
54 | CCn1c(-c2ccc(N3CCOC3=O)cc2)c(C#N)c2ccc(OCCCn3cncn3)cc21 [Compound 1084] | 0.5 to 2 µM

Row | Structure (SMILES) | IC50
55 | CCn1c(-c2ccc(NC(=O)C3CC3)cc2)c(C#N)c2ccc(OCCN3CCOCC3)cc21 [Compound 1025] | 0.5 to 2 µM
56 | COc1ccc2c(C#N)c(-c3ccc(N4CCCS4(=O)=O)cc3)n(C3CCC3)c2c1 [Compound 1104] | 0.5 to 2 µM
57 | CCOC(=O)Nc1ccc(-c2c(C#N)c3cc(OCC)ccc3n2C2CCC2)cc1 [Compound 1193] | < 0.5 µM
58 | CC(C)NC(=O)Nc1ccc(-c2c(C#N)c3ccc(OCCn4ccnc4)cc3n2C2CCC2)cc1 [Compound 1322] | < 0.5 µM
59 | CCn1c(-c2ccc(N(C)S(C)(=O)=O)cc2)c(C#N)c2ccc(C(F)(F)F)cc21 [Compound 1002] | 0.5 to 2 µM
60 | CCCOC(=O)Nc1ccc(-c2c(C#N)c3cc(OCc4ccccc4)ccc3n2CC)cc1 [Compound 926] | 0.5 to 2 µM
61 | CCOc1ccc2c(C#N)c(-c3ccc(NC(=O)C4CC4)cc3)n(CC)c2c1 [Compound 897] | 0.5 to 2 µM
62 | CCOc1ccc2c(c1)c(C#N)c(-c1ccc(NC(=O)NCCc3ccccc3)cc1)n2C1CCC1 [Compound 1227] | < 0.5 µM
63 | C[C@@H](OC(=O)Nc1ccc(-c2c(C#N)c3ccc(Oc4ncccn4)cc3n2C2CC2)cc1F)C1CC1 [Compound 2413] | < 0.5 µM
64 | CC(C)n1c(-c2ccc(NS(=O)(=O)C3CC3)cc2)c(C#N)c2ccc(OC(F)F)cc21 [Compound 868] | < 0.5 µM
65 | CCOc1ccc2c(c1)c(C#N)c(-c1ccc(NC(=O)OC(C)C3CC3)cc1)n2C1CCC1 (centres unmarked) [Compound 1296] | 0.5 to 2 µM
66 | CCCOC(=O)Nc1ccc(-c2c(C#N)c3ccc(OC(F)F)cc3n2CC)cc1 [Compound 1132] | 0.5 to 2 µM
67 | CCCOC(=O)Nc1ccc(-c2c(C#N)c3ccc(OCC)cc3n2C2CCC2)cc1 [Compound 972] | < 0.5 µM
68 | CCCS(=O)(=O)Nc1ccc(-c2c(C#N)c3cc(OCC)ccc3n2C2CCC2)cc1 [Compound 1229] | 0.5 to 2 µM
69 | CCNC(=O)Nc1ccc(-c2c(C#N)c3ccc(OCCCN4CCOCC4)cc3n2CC)cc1 [Compound 1124] | < 0.5 µM and 0.5 to 2 µM
70 | CCCOC(=O)Nc1ccc(-c2c(C#N)c3ccc(OC)cc3n2COC)cc1 [Compound 993] | 0.5 to 2 µM
71 | CC(C)NC(=O)Nc1ccc(-c2c(C#N)c3cc4c(cc3n2C2CCC2)OCO4)cc1 [Compound 1303] | 0.5 to 2 µM
72 | CCOc1ccc2c(C#N)c(-c3ccc(NC(=O)NC4CCCC4)cc3)n(CC3CC3)c2c1 [Compound 1173] | < 0.5 µM
73 | CCCCOC(=O)Nc1ccc(-c2c(C#N)c3ccc(O)cc3n2CC)cc1 [Compound 1086] | < 0.5 µM
74 | CCCS(=O)(=O)Nc1ccc(-c2c(C#N)c3ccc(OCC)cc3n2C2CCC2)cc1 [Compound 933] | 0.5 to 2 µM
75 | CCCS(=O)(=O)Nc1ccc(-c2c(C#N)c3ccc(OC(F)F)cc3n2C2CCCC2)cc1 [Compound 1188] | 0.5 to 2 µM
76 | CCn1c(-c2ccc(NC(=O)NC(C)C)c(F)c2)c(C#N)c2ccc(OC)cc21 [Compound 911] | 0.5 to 2 µM
77 | N#Cc1c(-c2ccc(NC(=O)NC3CCC3)cc2)n(C2CCC2)c2cc(OCCCCN3CCCC3)ccc12 [Compound 1259] | < 0.5 µM
78 | C=CCNC(=O)Nc1ccc(-c2c(C#N)c3ccc(OCCF)cc3n2CC)cc1 [Compound 958] | 0.5 to 2 µM and < 0.5 µM
79 | CCNC(=O)Nc1cccc(-c2c(C#N)c3ccc(OCCCN4CCOCC4)cc3n2CC)c1 [Compound 1043] | 0.5 to 2 µM
80 | CCOc1ccc2c(C#N)c(-c3ccc(NC(=O)CC)cc3)n(CC)c2c1 [Compound 896] | 0.5 to 2 µM
